From PMC10368966, “Safety and efficacy of AK0529 in respiratory syncytial virus‐infected infant patients: A phase 2 proof‐of‐concept trial” (Influenza and Other Respiratory Viruses, 2023)
“Also recorded” adds a separate entry of the source.

Assays:
[1] = design: method as in Study AK0529-1001; conditions: single doses of 100 mg and above ref Study AK0529-1001; cited from earlier work
RSV [2] = assay: Phase 2 study: RSV viral load by quantitative reverse-transcription PCR on nasopharyngeal swab or aspirate; assay type: in vivo, human (infants); conditions: for greater reduction in median viral load than placebo: Part 2, 2 mg/kg bid, not statistically significant
Source text: This was a double‐blind, placebo‐controlled, randomized, multicenter study with the primary objective to evaluate the safety and tolerability of single and multiple oral doses of AK0529. Secondary objectives were to evaluate the effect of AK0529 on Wang Respiratory Score, to determine the effects of treatment on viral load, and to characterize the pharmacokinetics (PK) of single and multiple AK0529 doses.
The study consisted of two parts. In both parts, subjects were randomized in a 2:1 ratio to receive active treatment or placebo. Subjects were stratified by age (6 to 24 months in Cohorts 1 and 3, and 1 to <6 months in Cohorts 2 and 4).
Part 1 was a single‐dose study with a 7‐day follow‐up. The doses administered to patients in Cohort 1 included 4, 2, and 1 mg/kg. The Safety Review Committee (SRC) reviewed PK and safety data after each of the sets of three patients, before further enrollment of subjects, and recommended 0.5 and 1 mg/kg as the doses for patients in Cohort 2.
In Part 2, subjects received AK0529 or placebo over 5 days and were followed until day 14 post‐initial dose. The doses in Cohort 3 included 1 and 0.5 mg/kg bid. In Cohort 4, the doses included 2, 1 and 0.5 mg/kg bid.

RSV [3] = test system: RSV; design: method as in PMID 31194544; conditions: orally administered ref 9; cited from earlier work
[4] = Phase 2 study: AST and ALT shift evaluation; assay type: in vivo, human (infants)
Experimental: Safety and tolerability was evaluated by clinical assessment of safety data, including laboratory data, electrocardiographic data, vital signs, and adverse events (AEs).
In study Part 1, no formal sample size calculation was performed. For Part 2, it was calculated that a sample size of 16 patients in each active treatment group would provide >90% power to detect a 50% reduction (mean ratio of 0.5) in RSV viral load AUC with AK0529 as compared with placebo, using a one‐sided significance level of 0.05, two‐sample equal variance t‐test, and assuming a 0.3 variation coefficient of the placebo for viral load. These assumptions were based on viral challenge models of early treatment in adults.[3] For the transaminase shift analysis, the Chi‐square test and Fisher's exact test were used, as appropriate, to test for differences between active treatment and placebo.

[5] = AK0529 n = 38, worst shift category
[6] = AK0529 n = 39, worst shift category

For Cc1ccc2nc(N3CCS(=O)(=O)c4ccccc4C3)nc(NCC3(N)COC3)c2c1 [AK0529, ziresovir], the “mean plasma concentration levels at 12 hours post-dose” value [1] is listed as > 50 ng/mL, the “reductions in viral load relative to placebo” value (RSV [2]; Part 1, 24 h after a single dose) is listed as < 1 log10 PFUe/mL and the “greater reduction in median viral load than placebo” value (RSV [2]; 72 h) is listed as 1.25 log10 PFUe/mL. The “greater reduction in median viral load than placebo” value (RSV [2]; 96 h post-dose) was 1.73 log10 PFUe/mL, the antiviral efficacy (RSV [3]) was “demonstrated antiviral efficacy” and the “ALT shift: Abnormal CS to abnormal NCS” value ([4]; AK0529 n = 38) was 0 n (%). The “ALT shift: Abnormal CS to normal” value ([4]; AK0529 n = 38) was 0 n (%), the “ALT shift: Abnormal NCS to normal” value ([4]; AK0529 n = 38) was 1 (2.6%) n (%) and the “ALT shift: No change” value ([4]; AK0529 n = 38) was 34 (89.5%) n (%). For the same compound, the “ALT shift: Abnormal NCS to abnormal CS” value [4, 5] was 1 (2.6%) n (%), the “ALT shift: Normal to abnormal CS” value [4, 5] was 1 (2.6%) n (%) and the “ALT shift: Normal to abnormal NCS” value [4, 5] was 1 (2.6%) n (%). The “AST shift: Abnormal CS to abnormal NCS” value ([4]; AK0529 n = 39) was 1 (2.6%) n (%), the “AST shift: Abnormal CS to normal” value ([4]; AK0529 n = 39) was 1 (2.6%) n (%) and the “AST shift: Abnormal NCS to normal” value ([4]; AK0529 n = 39) was 2 (5.1%) n (%). The “AST shift: No change” value ([4]; AK0529 n = 39) was 29 (74.4%) n (%), the “AST shift: Abnormal NCS to abnormal CS” value [4, 6] was 0 n (%) and the “AST shift: Normal to abnormal CS” value [4, 6] was 2 (5.1%) n (%). The “AST shift: Normal to abnormal NCS” value [4, 6] was 4 (10.3%) n (%) and the “association between exposure to active drug and deterioration / shifts in transaminase levels (ALT, AST)” value ([4]; vs placebo, Fisher's exact p = 0.516 (ALT), p = 0.644 (AST)) was “No statistically significant differences; also recorded: no association was found”.
